Reference: patent US10954305B2 (Immunomedics, Inc., priority 2016, dated 2021)
“Also recorded” adds a separate entry of the source.

Assays:
NCI-N87-S-120 tumors = experiment: SN-38-resistant xenograft therapy; conditions: IMMU-132 0.5 mg twice weekly ×4 weeks; irinotecan 40 mg/kg q2dx5
colorectal cancer = experiment: Phase I/II clinical trial of IMMU-132, CRC; type: in vivo, human
[1] = tested on: triple-negative breast cancer; experiment: Phase I/II clinical trial of IMMU-132, TNBC; type: in vivo, human
Excerpt: […] […] Previous treatments included cyclophosphamide, doxorubicin, carboplatin, gemcitabine, capecitabine, eribulin, cisplatinum, anastrozole, vinorelbine, bevacizumab and tamoxifen. […] The median time to progression in this heavily pretreated population of TNBC patients was 9.4 months, with a range of 2.9 to 14.2 months to date. However, 72% of patients in the study were still ongoing treatment.

[2] = tested on: NCI-N87 human gastric tumors; experiment: NCI-N87 xenograft therapy (FIG. 23); conditions: 0.35 mg twice weekly for four weeks
[3] = Phase I/II clinical trial of IMMU-132, immunogenicity; type: in vivo, human; conditions: repeated dosing
esophageal cancer = experiment: Phase I/II clinical trial of IMMU-132, esophageal; type: in vivo, human
HCC1806 (Trop-2+) = experiment: dsDNA breaks, rH2AX flow cytometry; type: cell-based, human; conditions: untreated baseline 168
rhTrop-2/TACSTD2 = target: T1, rhTrop-2/TACSTD2 (Homo sapiens, UniProt P09758); experiment: surface plasmon resonance binding (BIACORE); conditions: three independent runs
T1 construct: purchased Sino Biological, Inc
T1 sequence (P09758 27-323): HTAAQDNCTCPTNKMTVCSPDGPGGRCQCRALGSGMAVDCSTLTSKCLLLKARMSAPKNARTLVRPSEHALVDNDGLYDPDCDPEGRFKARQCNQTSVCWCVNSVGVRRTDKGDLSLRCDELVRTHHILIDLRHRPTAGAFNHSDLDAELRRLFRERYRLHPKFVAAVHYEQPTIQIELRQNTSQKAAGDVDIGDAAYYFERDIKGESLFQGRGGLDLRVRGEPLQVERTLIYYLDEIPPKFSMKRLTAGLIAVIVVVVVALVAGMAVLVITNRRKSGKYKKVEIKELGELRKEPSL
Description: (§1) Briefly, rhTrop-2/TACSTD2 (Sino Biological, Inc.) or recombinant human neonatal receptor (FcRn), produced as described (Wang et al., 2011, Drug Metab Dispos 39:1469-77), was immobilized with an amine coupling kit (GE Healthcare; Cat. No. BR-1000-50) on a CM5 sensor chip (GE Healthcare; Cat. #BR-1000-12) following manufacturer's instructions for a low-density chip. […] Each set would make up a separate run on the BIACORE (BIACORE-X; Biacore Inc., Piscataway, N.J.) and data were analyzed using BIAevaluation Software (Biacore Inc., v4.1). Analysis was performed with a 1:1 (Langmuir) Binding Model and Fit, using all five concentration points for each sample run to determine the best fit (lowest χ^2 value). The KD value was calculated using the formula KD=kd1/ka1, where kd1 is the dissociation rate-constant and ka1 is the association-rate constant.

[4] = target: T2, human neonatal receptor (FcRn) (Homo sapiens, UniProt P55899); experiment: surface plasmon resonance binding (BIACORE); conditions: three independent runs
T2 construct: made in house
T2 sequence (P55899 24-297 limits assumed): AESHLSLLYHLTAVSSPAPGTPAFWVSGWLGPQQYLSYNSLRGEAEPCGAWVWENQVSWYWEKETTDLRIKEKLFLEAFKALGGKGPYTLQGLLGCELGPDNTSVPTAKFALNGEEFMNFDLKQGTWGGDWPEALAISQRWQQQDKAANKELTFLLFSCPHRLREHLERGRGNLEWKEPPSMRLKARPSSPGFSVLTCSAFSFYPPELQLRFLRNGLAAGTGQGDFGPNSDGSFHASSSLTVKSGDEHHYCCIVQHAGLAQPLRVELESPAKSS
T2 sequence (P61769 21-119 partner): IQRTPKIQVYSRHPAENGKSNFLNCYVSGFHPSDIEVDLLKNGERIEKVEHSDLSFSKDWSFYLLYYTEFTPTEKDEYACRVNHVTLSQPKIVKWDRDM
Description: as §1

Substance | survival benefit (NCI-N87-S-120 tumors) | PD (colorectal cancer; of 18 assessable patients) | PR (colorectal cancer; of 18 assessable patients) | maximum reduction in target lesions (colorectal cancer; person, after 10 months) [%] | plasma CEA after treatment (colorectal cancer; person, from 781 ng/mL) [ng/mL] | confirmed complete responses (CR) ([1]; 10 mg/kg) | partial responses (PR) ([1]; 10 mg/kg) | time to progression, range ([1]; 10 mg/kg) [months] | clinical benefit rate (PR+SD>6 months) ([1]; 17 TNBC patients) [%] | PD ([1]; of 8 assessable patients) | PR ([1]; of 8 assessable patients) | partial responders [2] | anti-hRS7 / anti-SN-38 antibody response [3] | anti-hRS7 / anti-SN-38 antibody response ([3]; listed as sacituzumab govitecan) | PD (esophageal cancer; of 4 assessable patients) | PR (esophageal cancer; of 4 assessable patients) | duration of SD (esophageal cancer; patient 25, 18 then 13.5 mg/kg) [weeks] | Median fluorescence intensity (rH2AX) (HCC1806 (Trop-2+)) | Kd (rhTrop-2/TACSTD2) [nM] | Kd [4] [nM]
IMMU-132 | no significant survival benefit | 6 | 1 | 65 | 26.5 | 2 | 13 | 2.9 to 14.2 | 46 | 2 | 2 | 6 of 7 | No anti-hRS7 or anti-SN-38 antibodies were detected; also recorded: no anti-hRS7 or anti-SN-38 antibody response has been detected; also recorded: none of the patients developed an antibody response to IMMU-132 or SN-38 | no antibody response to the hRS7 IgG or SN-38 was detected | 1 | 1 | 30 | 546 | – | –
hRS7 IgG | – | – | – | – | – | – | – | – | – | – | – | – | – | – | – | – | – | – | 0.51 ± 0.04 | 92.4 ± 5.7
